The results in this text go back to patent publication US20100184094A1, “USE OF MDCK CELLS IN THE EVALUATION OF CHOLESTEROL MODULATORS” (priority 2007, published 2010).

This assay deals with T1, rat NPC1L1 (Rattus norvegicus, UniProt Q6T3U3).
T1 construct: expressed in transfected cells
As to the kind of experiment: [3H]AS binding to rNPC1L1/HEK293 cells (saturation, kinetics, competition, acid wash). Particulars: for IC50: 5.36 nM [3H]AS, 4 h, 37° C., read-out: IC50 inhibition of [3H]AS binding; for Ki: rNPC1L1/HEK293 cells. The procedure:
rNPC1L1/HEK293 and TsA201 cells were seeded at a density of 10,000 cells per well in 96-well poly-D-lysine coated plates and cells were allowed to attach for approximately 18 h at 37° C. TsA201 cells were subsequently transfected with dog NPC1L1/pcDNA5/FRT according to the manufacturer's instructions (Roche) and incubated for 3 days at 37° C. MDCKII-derived, LLC-PKI, HepG2, or CaCo-2 cells were seeded at a density of 25,000 cells per well in 96-well tissue culture treated plates, and cells were allowed to attach and differentiate for approximately 72 h at 37° C., except for CaCo-2 cells where differentiation took approximately 14 days at 37° C. […] Duplicate samples were averaged for each experimental point. […] To determine the kinetics of ligand association, cells were incubated with [^3H]AS for different periods of time. Dissociation kinetics were determined by addition of 100 μM EZE-gluc, and incubating for different periods of time. Nonspecific binding was defined in the presence of 100 μM EZE-gluc. At the end of the incubation period, cells were washed twice with 200 μl of pre-warmed DMEM to separate bound from free ligand, 1% SDS was added to the wells followed by 5 ml of Scintillant, and radioactivity associated with cells was determined using a β-counter. […] Thereafter, plates were placed on ice and cells were washed twice with ice-cold PBS, followed by ice-cold acid wash with DMEM, pH 3.5, for 1, 5 or 15 minutes. […] For Transwell experiments, MDCKII cells were seeded at 200,000 cells/well in a 24-well plate and incubated for 3 days at 37° C. […] Thereafter, both apical and basolateral compartments were washed three times with PBS, and the Transwell filter was cut out and its associated radioactivity determined using afi-counter. Data from saturation, competition and ligand dissociation experiments were analyzed as described in the literature; see, Priest, et al., 2004 Biochemistry 43:9866-9876; Knaus et al., 1995 Biochemistry 34:13627-13634. The association rate, k1, was determined by employing the pseudo-first-order rate equation k1=kobs([LR]e/[L][LR]max)) where [LR]max is the concentration of the complex at equilibrium, [L] is the concentration of ligand, [LR]max is the total receptor concentration, kobs is the slope of the pseudo-first order plot, ln([LR]e/([LR]e−[LR]t)) versus time, and [LR]t is the receptor-ligand complex at one given time point t.
Incubation of rNPC1L1/HEK293 cells with 5 nM [311]AS results in a time-dependent association of ligand with cells that reaches equilibrium in ˜3 h (FIG. 1B). The nonspecific binding component is time-independent and has been subtracted from the experimental data. A semilogarithmic transformation of the data yielded a linear dependence (FIG. 1B, inset), as expected for a pseudo-first order reaction, and the slope of this line gives kobs of 0.0208 min^−1. The association rate constant, k1, calculated as described under Example 3, is 2.4×10^6 M^−1 min^−1.
Ki values, determined as described above, are presented in Table 1 below and display the expected rank order of potency for interaction of these ligands with rat NPC1L1; Garcia-Calvo et al., 2005 Proc. Natl. Acad. Sci. USA 102:8132-8137.
Such an approach has previously been previously used to characterize cell surface, non-covalent interactions; Hopkins & Trowbridge, 1983 J. Cell Biol. 97:508-521; Chen et al., 1998 Proc. Natl. Acad. USA 95:6373-6378.

Each structure is given as a SMILES string.

Regarding `O=C1[C@H](CC[C@H](O)c2ccc(F)cc2)[C@@H](c2ccc(O)cc2)N1c1ccc(F)cc1` [EZE, Ezetimibe], the IC50 – broadly, the concentration needed to halve the response being measured – came out at 398 nM and the affinity corresponds to a Ki of 209 ± 40.4 nM.
For `COC(=O)[C@H]1O[C@@H](Oc2ccc([C@@H]3[C@@H](CC[C@H](O)c4ccc(F)cc4)C(=O)N3c3ccc(C#CCNS(C)(=O)=O)cc3)cc2)[C@H](O)[C@@H](O)[C@@H]1O` [PS, 4-[(2S,3R)-3-[(3S)-3-(4-fluorophenyl)-3-hydroxypropyl]-1-(4-{3-[(methylsulfonyl)amino]prop-1-yn-1-yl}phenyl)-4-oxoazetidin-2-yl]phenyl methyl-β-D-glucopyranosiduronate], in that order: 6.61 nM and 4.07 ± 1.47 nM.
Turning to `O=C(O)[C@H]1O[C@@H](Oc2ccc([C@@H]3[C@@H](CC[C@H](O)c4ccc(F)cc4)C(=O)N3c3ccc(F)cc3)cc2)[C@H](O)[C@@H](O)[C@@H]1O` [EZE-gluc, ezetimibe glucuronide], the IC50 worked out at 182 nM and the affinity, expressed as Ki, was 95.1 ± 8.62 nM.
